Experiment [1] deals with T1, rat PAM (PHM activity) (Rattus norvegicus, UniProt P14925).
T1 construct: rat PAM expressed in mouse corticotropes, cell lysate; PHM domain activity measured
T1 sequence (P14925 36-976): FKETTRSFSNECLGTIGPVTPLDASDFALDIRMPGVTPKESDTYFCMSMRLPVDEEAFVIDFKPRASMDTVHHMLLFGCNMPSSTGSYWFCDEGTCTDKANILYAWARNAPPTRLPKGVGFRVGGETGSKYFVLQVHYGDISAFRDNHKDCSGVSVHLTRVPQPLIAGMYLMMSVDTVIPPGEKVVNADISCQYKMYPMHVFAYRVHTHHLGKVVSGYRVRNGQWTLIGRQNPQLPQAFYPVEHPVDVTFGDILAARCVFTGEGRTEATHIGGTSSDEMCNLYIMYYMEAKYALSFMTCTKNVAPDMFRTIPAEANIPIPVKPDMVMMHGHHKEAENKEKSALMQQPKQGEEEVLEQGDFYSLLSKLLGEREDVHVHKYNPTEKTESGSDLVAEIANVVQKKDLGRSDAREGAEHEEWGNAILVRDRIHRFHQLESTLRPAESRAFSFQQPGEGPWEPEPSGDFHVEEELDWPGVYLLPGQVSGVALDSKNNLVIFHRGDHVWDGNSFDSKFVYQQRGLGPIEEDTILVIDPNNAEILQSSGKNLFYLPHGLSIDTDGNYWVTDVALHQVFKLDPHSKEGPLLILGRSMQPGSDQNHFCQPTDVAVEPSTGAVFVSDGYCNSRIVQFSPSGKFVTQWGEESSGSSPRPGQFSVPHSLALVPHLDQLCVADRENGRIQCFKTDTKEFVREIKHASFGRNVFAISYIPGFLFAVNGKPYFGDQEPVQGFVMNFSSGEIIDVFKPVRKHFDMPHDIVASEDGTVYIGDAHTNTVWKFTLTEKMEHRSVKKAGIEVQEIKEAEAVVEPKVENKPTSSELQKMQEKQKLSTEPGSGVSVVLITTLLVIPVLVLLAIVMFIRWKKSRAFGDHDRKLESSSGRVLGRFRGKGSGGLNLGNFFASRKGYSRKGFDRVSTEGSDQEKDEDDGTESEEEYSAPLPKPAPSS
The experiment in a line: PHM activity assay in cell lysate. Format: biochemical. The note with it: mechanism-based PHM inhibitor; PBA added to lysate; vehicle ethanol.

The target of experiment [2] is T2, CrPAM (PHM activity) (Chlamydomonas reinhardtii, UniProt A0A0S2C767).
T2 construct: gene PAM; native full-length bifunctional membrane PAM (110 kDa) in detergent cell lysate; PHM domain activity measured
T2 sequence (A0A0S2C767 22-926): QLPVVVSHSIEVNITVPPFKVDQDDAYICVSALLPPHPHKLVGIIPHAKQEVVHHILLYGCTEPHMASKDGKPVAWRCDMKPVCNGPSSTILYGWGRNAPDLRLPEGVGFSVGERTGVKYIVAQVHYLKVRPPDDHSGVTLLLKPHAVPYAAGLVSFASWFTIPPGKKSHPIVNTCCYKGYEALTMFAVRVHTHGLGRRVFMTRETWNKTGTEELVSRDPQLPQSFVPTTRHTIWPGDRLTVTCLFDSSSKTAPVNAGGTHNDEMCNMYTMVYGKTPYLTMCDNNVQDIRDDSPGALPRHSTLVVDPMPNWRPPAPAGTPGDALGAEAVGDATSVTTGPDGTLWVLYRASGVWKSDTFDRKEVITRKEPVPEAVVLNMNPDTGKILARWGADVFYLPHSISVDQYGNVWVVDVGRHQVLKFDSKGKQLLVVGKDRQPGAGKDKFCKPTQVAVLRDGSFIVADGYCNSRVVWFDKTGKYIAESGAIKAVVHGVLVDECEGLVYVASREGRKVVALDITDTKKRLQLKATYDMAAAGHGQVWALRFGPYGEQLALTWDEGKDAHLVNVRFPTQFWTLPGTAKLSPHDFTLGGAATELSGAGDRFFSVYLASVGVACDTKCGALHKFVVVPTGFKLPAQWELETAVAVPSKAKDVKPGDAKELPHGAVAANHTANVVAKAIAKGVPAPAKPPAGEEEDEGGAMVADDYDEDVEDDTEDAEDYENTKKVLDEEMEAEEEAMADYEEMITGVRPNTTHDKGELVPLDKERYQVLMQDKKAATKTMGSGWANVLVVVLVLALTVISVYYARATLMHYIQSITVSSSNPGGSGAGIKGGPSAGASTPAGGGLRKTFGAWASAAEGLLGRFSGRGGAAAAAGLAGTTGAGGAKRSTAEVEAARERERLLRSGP
The experiment in a line: PHM activity assay in cell lysate. The note with it: mechanism-based PHM inhibitor; PBA added to lysate; vehicle ethanol. Format: biochemical.

Regarding `O=C(O)CC=Cc1ccccc1` [4-phenyl-3-butenoic acid], the PHM specific activity entry was “PHM specific activity was greatly reduced in both lysates in the presence of PBA” in experiment [1]; “did inhibit both mammalian and C. reinhardtii PHM activities” in experiment [2].

The values above are taken from article PMC5461114, “A bioactive peptide amidating enzyme is required for ciliogenesis” (eLife, 2017).
